PubChem BioAssay (NCI)
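Briefly, cells in 96-well plates were exposed to five compound concentrations for 48 h, and endpoints were estimated by linear interpolation. TGI: total growth inhibition.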

Columns and labels:
Test in all cases: NCI-60 cell line screen, 48 h
[1] = tested on: DLD-1 colon
[2] = tested on: DMS 114 small cell lung
[3] = tested on: DMS 273 small cell lung
[4] = tested on: HOP-18 NSCLC
[5] = tested on: KM20L2 colon
[6] = tested on: LXFL 529 NSCLC
[7] = tested on: M19-MEL melanoma
[8] = tested on: SNB-78 CNS
[9] = tested on: XF 498 CNS
[10] = tested on: RXF-631 renal

Row | Compound | TGI [1] | TGI [2] | TGI [3] | TGI [4] | TGI [5] | TGI [6] | TGI [7] | TGI [8] | TGI [9] | TGI [10]
1 | CC1(c2cccc3c2C2(O)C=CC4(CCC32)OCCO4)OCCO1 (centres undefined) | > 100 µM | > 100 µM | > 100 µM | > 100 µM | > 100 µM | > 100 µM | > 100 µM | > 100 µM | – | –
2 | O=S1(=O)NNC(=NCc2ccc(Cl)c(Cl)c2)c2ccccc21 | > 100 µM | > 100 µM | > 100 µM | > 100 µM | > 100 µM | > 100 µM | > 100 µM | > 100 µM | – | –
3 | COc1ccc(N(C)CN(C)c2nc(N(C)C)nc(N(C)C)n2)cc1 | > 100 µM | > 100 µM | > 100 µM | > 100 µM | > 100 µM | > 100 µM | > 100 µM | > 100 µM | – | –
4 | CNC(C)Cc1ccccc1O (centres undefined) | > 100 µM | > 100 µM | > 100 µM | > 100 µM | > 100 µM | > 100 µM | – | > 100 µM | – | –
5 | CCCCCCCC(=O)OC[C@@H](C[As](=O)(O)O)OC(=O)CCCCCCC | 27.5 µM | 22.3 µM | 26.1 µM | 44.1 µM | 31.2 µM | 25.3 µM | 31 µM | 30.8 µM | – | –
6 | COc1cc2cc[n+](C)c(Cc3ccccc3)c2cc1OC | – | > 100 µM | > 100 µM | > 100 µM | > 100 µM | > 100 µM | > 100 µM | > 100 µM | – | –
7 | C#CCSc1nc(N)c2ncn(C3OC(CO)C(O)C3O)c2n1 (centres undefined) | > 100 µM | > 100 µM | > 100 µM | – | – | > 100 µM | > 100 µM | > 100 µM | > 100 µM | –
8 | O=C(O)c1c[nH]c2c(=O)[nH]cnc12 | > 100 µM | > 100 µM | – | > 100 µM | – | > 100 µM | > 100 µM | > 100 µM | – | > 100 µM
9 | COc1ccc(-c2cnoc2-c2ccc(OC)c(OC)c2)cc1OC | > 63.7 µM | 2.23 µM | 2.02 µM | > 59.5 µM | > 22.4 µM | > 100 µM | 11.3 µM | > 26.8 µM | 9.99 µM | –
